Measured values as given in patent US20070128217A1 (priority 2003, published 2007).

What was measured:
[1] = tested on: antibodies in sera from SARS patients (sera 1a, 1b, 2, 6, 37, 62, London, SARS-yellow, SARS-green); format: binding, human; design: Binding of serum 6 to linear peptides of protein X1 of SARS-CoV Urbani / Binding of serum 37 to linear peptides of protein X1 of SARS-CoV Urbani / Binding of serum 6 to looped/cyclic peptide (PEPSCAN-ELISA) / Binding of serum 37 to looped/cyclic peptide (PEPSCAN-ELISA) / Binding of serum 37 to looped/cyclic peptides of protein X1 of SARS-CoV Urbani / Binding of serum 6 to linear peptides of protein X2 / Binding of serum 37 to linear peptides of protein X2 / Binding of serum 37 to looped/cyclic peptides of protein X2 of SARS-CoV Urbani / Binding of serum 6 to linear peptides of protein M of SARS-CoV Urbani / Binding of serum 37 to linear peptides of protein M of SARS-CoV Urbani / Binding of serum 6 to looped/cyclic peptides of protein M of SARS-CoV Urbani / Binding of serum 37 to looped/cyclic peptides of protein M of SARS-CoV Urbani / Binding of serum 6 to linear peptides of protein X3 of SARS-CoV Urbani / Binding of serum 37 to linear peptides of protein X3 of SARS-CoV Urbani / Binding of serum 37 to looped/cyclic peptides of protein X3 of SARS-CoV Urbani / Binding of serum 6 to linear peptides of protein X4 of SARS-CoV Urbani / Binding of serum 37 to linear peptides of protein X4 of SARS-CoV Urbani / Binding of serum 37 to looped/cyclic peptides of protein X4 of SARS-CoV Urbani / Binding of serum 6 to linear peptides of protein X5 of SARS-CoV Urbani / Binding of serum 37 to linear peptides of protein X5 of SARS-CoV Urbani / Binding of serum 37 to looped/cyclic peptides of protein X5 of SARS-CoV Urbani / Binding of serum 6 to linear peptides of protein N of SARS-CoV Urbani / Binding of serum 37 to linear peptides of protein N of SARS-CoV Urbani / Binding of serum 6 to linear peptide (PEPSCAN-ELISA) / Binding of serum 1a to looped/cyclic peptides of protein N of SARS-CoV Urbani / Binding of serum 1b to looped/cyclic peptides of protein N of SARS-CoV Urbani / Binding of serum 2 to looped/cyclic peptides of protein N of SARS-CoV Urbani / Binding of serum 6 to looped/cyclic peptides of protein N of SARS-CoV Urbani / Binding of serum 37 to looped/cyclic peptides of protein N of SARS-CoV Urbani / Binding of serum 62 to looped/cyclic peptides of protein N of SARS-CoV Urbani / Binding of serum London to looped/cyclic peptides of protein N of SARS-CoV Urbani / Binding of serum SARS-green to looped/cyclic peptides of protein N of SARS-CoV Urbani: unit not given here
[2] = tested on: rabbit serum obtained by immunizing a rabbit with the SARS-CoV strain Frankfurt 1; format: binding; design: Binding of a rabbit serum to linear peptides / Binding of a rabbit serum to looped peptides / Rabbit serum linear peptides / Rabbit serum looped peptides / Binding of a rabbit serum to linear peptides of protein N of SARS-CoV Urbani (Rabbit serum linear peptides) / Binding of a rabbit serum to looped/cyclic peptides of protein N of SARS-CoV Urbani (Rabbit serum looped peptides): unit not given here
[3] = tested on: control sera (pooled serum of ten healthy LUMC hospital workers; commercial negative donor pooled serum from the Dutch bloodbank); format: binding, human; design: Binding of Control serum LUMC to linear peptides / Binding of Control serum Blood-bank to linear peptides / Binding of Control serum LUMC to looped peptides / Binding of Control Serum Blood-Bank to Looped peptides / Binding of Control serum LUMC to linear peptides of the protein M of SARS-CoV Urbani / Binding of Control serum Blood-bank to linear peptides of the protein M of SARS-CoV Urbani / Binding of Control serum LUMC to looped peptides of the protein M of SARS-CoV Urbani / Binding of Control Serum Blood-Bank to Looped peptides of the protein M of SARS-CoV Urbani: unit not given here

HTIDGSSGVANPAMD
0.1: Binding of serum 2 to looped/cyclic peptides of protein X1 of SARS-CoV Urbani [1] | Binding of serum 6 to looped/cyclic peptides of protein X1 of SARS-CoV Urbani [1] | Binding of serum London to looped/cyclic peptides of protein X1 of SARS-CoV Urbani [1] | Binding of serum SARS-green to looped/cyclic peptides of protein X1 of SARS-CoV Urbani [1] | Binding of serum SARS-yellow to looped/cyclic peptides of protein X1 of SARS-CoV Urbani [1] | Binding of a rabbit serum to linear peptides [2]
0.7: Binding of serum 1a to linear peptides of protein X1 of SARS-CoV Urbani [1] | Binding of serum 1b to linear peptides of protein X1 of SARS-CoV Urbani [1] | Binding of serum 37 to linear peptides of protein X1 of SARS-CoV Urbani [1] | Binding of serum 62 to linear peptides of protein X1 of SARS-CoV Urbani [1]
0.3: Binding of serum 1a to looped/cyclic peptides of protein X1 of SARS-CoV Urbani [1] | Binding of serum 37 to looped/cyclic peptides of protein X1 of SARS-CoV Urbani [1] | Binding of serum London to linear peptides of protein X1 of SARS-CoV Urbani [1] | Binding of Control Serum Blood-Bank to Looped peptides [3]
0.2: Binding of serum 1b to looped/cyclic peptides of protein X1 of SARS-CoV Urbani [1] | Binding of serum 62 to looped/cyclic peptides of protein X1 of SARS-CoV Urbani [1] | Binding of Control serum LUMC to looped peptides [3]
0.5: Binding of serum 2 to linear peptides of protein X1 of SARS-CoV Urbani [1] | Binding of serum 6 to linear peptides of protein X1 of SARS-CoV Urbani [1] | Binding of Control serum LUMC to linear peptides [3]
0.4: Binding of serum SARS-yellow to linear peptides of protein X1 of SARS-CoV Urbani [1] | Binding of a rabbit serum to looped peptides [2] | Binding of Control serum Blood-bank to linear peptides [3]
0.6: Binding of serum SARS-green to linear peptides of protein X1 of SARS-CoV Urbani [1]

IAIWNLDVIISSIVR
0.3: Binding of serum 1b to looped/cyclic peptides of protein X3 of SARS-CoV Urbani [1] | Binding of serum SARS-green to linear peptides of protein X3 of SARS-CoV Urbani [1] | Rabbit serum linear peptides [2] | Rabbit serum looped peptides [2]
0.7: Binding of serum 1a to linear peptides of protein X3 of SARS-CoV Urbani [1] | Binding of serum 1a to looped/cyclic peptides of protein X3 of SARS-CoV Urbani [1] | Binding of Control Serum Blood-Bank to Looped peptides of the protein X3 of SARS-CoV Urbani [3] | Binding of Control serum LUMC to looped peptides of the protein X3 of SARS-CoV Urbani [3]
0.5: Binding of serum 1b to linear peptides of protein X3 of SARS-CoV Urbani [1] | Binding of serum 6 to linear peptides of protein X3 of SARS-CoV Urbani [1] | Binding of serum 37 to linear peptides of protein X3 of SARS-CoV Urbani [1] | Binding of serum 62 to looped/cyclic peptides of protein X3 of SARS-CoV Urbani [1] | Binding of Control serum LUMC to linear peptides of the protein X3 of SARS-CoV Urbani [3]
0.2: Binding of serum London to looped/cyclic peptides of protein X3 of SARS-CoV Urbani [1]
0.4: Binding of serum 6 to looped/cyclic peptides of protein X3 of SARS-CoV Urbani [1] | Binding of serum SARS-yellow to linear peptides of protein X3 of SARS-CoV Urbani [1]
0.6: Binding of serum 2 to linear peptides of protein X3 of SARS-CoV Urbani [1] | Binding of serum 2 to looped/cyclic peptides of protein X3 of SARS-CoV Urbani [1] | Binding of serum 37 to looped/cyclic peptides of protein X3 of SARS-CoV Urbani [1] | Binding of serum 62 to linear peptides of protein X3 of SARS-CoV Urbani [1] | Binding of serum London to linear peptides of protein X3 of SARS-CoV Urbani [1] | Binding of serum SARS-yellow to looped/cyclic peptides of protein X3 of SARS-CoV Urbani [1] | Binding of Control serum Blood-bank to linear peptides of the protein X3 of SARS-CoV Urbani [3]
0.0: Binding of serum SARS-green to looped/cyclic peptides of protein X3 of SARS-CoV Urbani [1]

ICNLLLLFVTIYSHL
0.5: Binding of serum 2 to linear peptides of protein X1 of SARS-CoV Urbani [1] | Binding of serum 62 to linear peptides of protein X1 of SARS-CoV Urbani [1] | Binding of serum 62 to looped/cyclic peptide (PEPSCAN-ELISA) [1] | Binding of a rabbit serum to looped peptides [2] | Binding of Control Serum Blood-Bank to Looped peptides [3] | Binding of Control serum Blood-bank to linear peptides [3] | Binding of Control serum LUMC to linear peptides [3]
0.2: Binding of serum 6 to looped/cyclic peptide (PEPSCAN-ELISA) [1] | Binding of serum London to linear peptides of protein X1 of SARS-CoV Urbani [1] | Binding of serum London to looped/cyclic peptide (PEPSCAN-ELISA) [1] | Binding of serum SARS-green to looped/cyclic peptide (PEPSCAN-ELISA) [1] | Binding of a rabbit serum to linear peptides [2]
0.6: Binding of serum 1a to linear peptides of protein X1 of SARS-CoV Urbani [1] | Binding of serum 1b to linear peptides of protein X1 of SARS-CoV Urbani [1] | Binding of serum 37 to linear peptides of protein X1 of SARS-CoV Urbani [1]
0.3: Binding of serum 1b to looped/cyclic peptide (PEPSCAN-ELISA) [1] | Binding of serum SARS-green to linear peptides of protein X1 of SARS-CoV Urbani [1]
0.4: Binding of serum 1a to looped/cyclic peptide (PEPSCAN-ELISA) [1] | Binding of serum 2 to looped/cyclic peptide (PEPSCAN-ELISA) [1] | Binding of serum 6 to linear peptides of protein X1 of SARS-CoV Urbani [1] | Binding of serum 37 to looped/cyclic peptide (PEPSCAN-ELISA) [1] | Binding of serum SARS-yellow to linear peptides of protein X1 of SARS-CoV Urbani [1] | Binding of serum SARS-yellow to looped/cyclic peptide (PEPSCAN-ELISA) [1] | Binding of Control serum LUMC to looped peptides [3]
